This note sets out measurements from patent US6750034B1, “DNA encoding human serine protease D-G” (Ortho-McNeil Pharmaceutical, Inc., priority 2000, dated 2004).

[ ]: non-standard residue; d: D form. The star is where a group is joined. pNA = O=[N+]([O-])c1ccc(N*)cc1; Cbz = O=C(OCc1ccccc1)*

This test deals with T1, activated protease D-G-6×HIS (Homo sapiens, UniProt Q9NRS4).
T1 construct: enterokinase cleavage site from human trypsinogen I (EK) (N, cleaved yes); made in house; host or cells: Sf9 insect cells, baculovirus (pFastBac 1)
T1 sequence (Q9NRS4 205-434 limits assumed): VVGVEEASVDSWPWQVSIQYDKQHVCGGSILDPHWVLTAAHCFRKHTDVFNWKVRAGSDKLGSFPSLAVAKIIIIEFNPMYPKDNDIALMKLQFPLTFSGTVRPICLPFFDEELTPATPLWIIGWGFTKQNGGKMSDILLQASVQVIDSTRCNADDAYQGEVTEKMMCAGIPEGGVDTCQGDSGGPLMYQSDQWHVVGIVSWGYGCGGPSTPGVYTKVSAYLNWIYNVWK
Kind of test: Chromogenic (amidolytic) assay, release of pNA from synthetic substrates. It is filed as biochemical. The conditions noted are these: recombinant activated protease D-G-6×HIS; substrate 500 uM; 10 mM TRIS-HCl pH 7.8, 25 mM NaCl, 25 mM imidazole; 37° C., 120 min, 405 nm; N.A. = No Activity. Here is the method:
Amidolytic activities of the activated serine proteases are monitored by release of para-nitroaniline (pNA) from synthetic substrates that are commercially available (Bachem California Inc., Torrance, […].; American Diagnostica Inc., Greenwich, Conn.; Kabi Pharmacia Hepar Inc., Franklin, Ohio). Assay mixtures contain chromogenic substrates in 500 uM and 10 mM TRIS-HCl (pH 7.8), 25 mM NaCl, and 25 mM imidazole. Release of pNA is measured over 120 min at 37° C. on a micro-plate reader (Molecular Devices, Menlo Park, Calif.) with a 405 nm absorbance filter. The initial reaction rates (Vmax, mOD/min) are determined from plots of absorbance versus time using Softmax (Molecular Devices, Menlo Park, Calif.). The specific activities (nmole pNA produced/min/ug protein) of the activated protease D-G-6×HIS for the various substrates are presented in Table 1.
Table 1—The specific activity (nmole pNA produced/min/ug protein) of recombinant activated protease D-G-6×HIS, determined for the various substrates analyzed, is shown.
For Cbz-Phe-Arg-pNA, the “Specific Activity” value is given as 0.116 ± 0.006 nmole pNA produced/min/ug protein.

On to H-D-LYS(CBO)-Pro-Arg-pNA, for which the “Specific Activity” value is 0.076 ± 0.008 nmole pNA produced/min/ug protein.

For H-D-Pro-HHT-Arg-pNA, the “Specific Activity” value was 0.046 ± 0.001 nmole pNA produced/min/ug protein.

With H-[dV]-Leu-Arg-pNA, the “Specific Activity” value is listed as 0.025 ± 0.003 nmole pNA produced/min/ug protein.

For the substance H-[dV]-Leu-Lys-pNA, the “Specific Activity” value is 0.034 ± 0.003 nmole pNA produced/min/ug protein.
